From patent publication US8232295B2, “Treating vascular events with statins by inhibiting PAR-1 and PAR-4” (Heartdrug Research, L.L.C., priority 2004, dated 2012)

Assays:
[1] = tested on: platelet PAR-1/PAR-4 receptors (cleaved epitope); assay: Whole blood flow cytometry with WEDE15 monoclonal antibody (cleaved epitope) in statin-treated patients with coronary artery disease; format: in vivo, human; conditions: n = 10
Source text: (§1) The study was designed as a prospective, single blinded, placebo controlled trial of 6 major statins currently available in the US. The study was approved by local institutional review boards. Written informed consent was obtained from all patients, who were informed of the strict compliance rules, and compensated for outpatient visits, and blood draws.
(§2) Blood samples were obtained with a 19-gauge needle by direct venipuncture and drawn into two 7-ml vacutainer tubes at room temperature containing 3.8% trisodium citrate. The vacutainer tube was filled to capacity and gently inverted 3 to 5 times to ensure complete mixing of the anticoagulant. The first 4-5 ml of blood were used for lipid profile analysis, or discharged. All samples were labeled with coded number and analyzed by blinded technicians. Platelet studies were performed at baseline as well as at Week 4, and Week 6.
(§3) The blood-citrate mixture (50 μl) was diluted with 450 μl Tris buffered saline (TBS) (10 mmol/l Tris, 0.15 mol/l sodium chloride) and mixed by inverting an Eppendorf tube gently two times. The appropriate antibody was then added (5 μl) and incubated at 37° C. for 30 minutes, after incubation, 400 μl of 2% buffered paraformaldehyde was added for fixation. The samples were analyzed on the FACScan flow cytometer (Becton Dickinson, San Diego, Calif.) calibrated to measure fluorescent light scatter. All parameters were collected using four-decade logarithmic amplification. The data were collected in list mode files and then analyzed. The surface expression of platelet receptors was determined by flow cytometry using the following monoclonal antibodies: cleaved (WEDE15), and intact (SPAN12) platelet thrombin PAR-1/PAR-4 receptors (Beckman Coulter, Brea, Calif.), and they were expressed as log mean fluorescence intensity.
(§4) The significance of differences between treatments arms was calculated by c2 and Fisher's exact tests for discrete variables, and Wilcoxon rank-sum test for continuous variables. The significance of differences between individual flow cytometric histograms was calculated using the Smirnov-Kolgomorov test incorporated in the CELLQuest' (San Diego, Calif.) software. Statistical analyses were performed using SPSS/E11.5 (SPSS, Inc., Chicago, Ill.). To control for any baseline differences analysis of variance was used. All p values are 2 sided.

[2] = tested on: platelet PAR-1/PAR-4 receptors (intact epitope); assay: Whole blood flow cytometry with SPAN12 monoclonal antibody (nonactive, intact epitope) in statin-treated patients with coronary artery disease; format: in vivo, human; conditions: n = 10
Source text: as §1, §2, §3, §4

[3] = Baseline (pretreatment), patients with coronary artery disease, mean ± SD
[4] = Week 4 of statin therapy, dose at physician discretion (Table 2), *p < 0.05
[5] = Week 6 of statin therapy, dose at physician discretion (Table 2), *p < 0.05

SMILES | WEDE15-MoAbs (a cleaved epitope of PAR-1/PAR-4 receptors) receptor expression [1, 3] | WEDE15-MoAbs (a cleaved epitope of PAR-1/PAR-4 receptors) receptor expression [1, 4] | WEDE15-MoAbs (a cleaved epitope of PAR-1/PAR-4 receptors) receptor expression [1, 5] | SPAN-12-MoAbs (nonactive, intact epitope of PAR-1/PAR-4 receptors) receptor expression [2, 3] | SPAN-12-MoAbs (nonactive, intact epitope of PAR-1/PAR-4 receptors) receptor expression [2, 4] | SPAN-12-MoAbs (nonactive, intact epitope of PAR-1/PAR-4 receptors) receptor expression [2, 5]
CC(C)n1c(/C=C/C(O)CC(O)CC(=O)O)c(-c2ccc(F)cc2)c2ccccc21 (stereo not drawn) [Fluvastatin, fluvastatin] | 27.1 ± 5.9 Log mean fluorescence intensity | 18.0 ± 5.8* Log mean fluorescence intensity | 20.7 ± 4.1* Log mean fluorescence intensity | 42.8 ± 8.2 Log mean fluorescence intensity | 37.1 ± 7.3 Log mean fluorescence intensity | 29.9 ± 6.4* Log mean fluorescence intensity
CC(C)c1c(C(=O)Nc2ccccc2)c(-c2ccccc2)c(-c2ccc(F)cc2)n1CC[C@@H](O)C[C@@H](O)CC(=O)O [Atorvastatin, atorvastatin] | 27.5 ± 4.9 Log mean fluorescence intensity | 16.1 ± 5.8* Log mean fluorescence intensity | 18.0 ± 7.4* Log mean fluorescence intensity | 46.1 ± 8.3 Log mean fluorescence intensity | 39.5 ± 5.7 Log mean fluorescence intensity | 30.8 ± 4.0* Log mean fluorescence intensity
CCC(C)(C)C(=O)O[C@H]1C[C@@H](C)C=C2C=C[C@H](C)[C@H](CC[C@@H]3C[C@@H](O)CC(=O)O3)[C@H]21 [Simvastatin, simvastatin] | 29.0 ± 7.3 Log mean fluorescence intensity | 16.6 ± 5.5* Log mean fluorescence intensity | 23.4 ± 8.1 Log mean fluorescence intensity | 45.4 ± 7.0 Log mean fluorescence intensity | 26.5 ± 5.8* Log mean fluorescence intensity | 24.9 ± 6.2* Log mean fluorescence intensity
CC[C@H](C)C(=O)O[C@H]1C[C@@H](C)C=C2C=C[C@H](C)[C@H](CC[C@@H]3C[C@@H](O)CC(=O)O3)[C@H]21 [Lovastatin, lovastatin] | 26.8 ± 4.9 Log mean fluorescence intensity | 18.4 ± 5.0* Log mean fluorescence intensity | 23.0 ± 6.3 Log mean fluorescence intensity | 40.6 ± 6.9 Log mean fluorescence intensity | 40.0 ± 8.1 Log mean fluorescence intensity | 31.1 ± 5.5* Log mean fluorescence intensity
CC(C)c1nc(N(C)S(C)(=O)=O)nc(-c2ccc(F)cc2)c1/C=C/[C@@H](O)C[C@@H](O)CC(=O)O [Rosuvastatin, rosuvastatin] | 30.1 ± 7.2 Log mean fluorescence intensity | 17.4 ± 5.5* Log mean fluorescence intensity | 22.6 ± 7.2* Log mean fluorescence intensity | 42.2 ± 9.4 Log mean fluorescence intensity | 33.6 ± 5.9 Log mean fluorescence intensity | 25.1 ± 7.0* Log mean fluorescence intensity
CC[C@H](C)C(=O)O[C@H]1C[C@H](O)C=C2C=C[C@H](C)[C@H](CC[C@@H](O)C[C@@H](O)CC(=O)O)[C@H]21 [Pravastatin, pravastatin] | 28.2 ± 4.4 Log mean fluorescence intensity | 16.9 ± 4.8* Log mean fluorescence intensity | 20.1 ± 6.6* Log mean fluorescence intensity | 50.3 ± 9.1 Log mean fluorescence intensity | 29.0 ± 6.7* Log mean fluorescence intensity | 32.6 ± 8.4* Log mean fluorescence intensity
